Some test systems named below: SNB-78 CNS; HOP-18 NSCLC; DLD-1 colon; OVCAR-4 ovarian; M19-MEL melanoma; DMS 114 small cell lung; DMS 273 small cell lung; XF 498 CNS; HS 578T breast; MDA-MB-435.
Experiment in all cases: NCI-60 cell line screen, 48 h

“And” between values parts separate entries of the source, which are not always exact repeats. Equal values may be shown once.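 Values below derive from 48-hour exposures of cells grown in 96-well plates, with endpoints linearly interpolated between the two concentrations bracketing the appropriate inhibition level. GI50: concentration for 50% inhibition of growth. TGI: total growth inhibition.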 Some results are limits rather than exact numbers.

On to `O/N=C1/CCCC/C1=C/C=C/c1ccccc1`, for which the TGI is 77.7 µM in the test with SNB-78 CNS; 78.1 µM in the test with HOP-18 NSCLC; more than 100 µM with DLD-1 colon; more than 100 µM in the test on OVCAR-4 ovarian; 43.8 µM in the test on M19-MEL melanoma.
For the molecule `CCOC(=O)c1oc2c(OC)ccc3c2c1CCC3`, the TGI in the test on SNB-78 CNS, in the test on DMS 114 small cell lung, in the test on DLD-1 colon, in the test with OVCAR-4 ovarian, with DMS 273 small cell lung and with M19-MEL melanoma was more than 100 µM throughout. Besides, the TGI with XF 498 CNS is more than 100 µM.
Regarding `O=C(CCC(=O)Nc1ccccc1C(F)(F)F)N/N=C1\C(=N\NC(=O)CCC(=O)Nc2ccccc2C(F)(F)F)C(c2ccc3c(c2)OCO3)Oc2ccccc21` (stereo unspecified), the TGI with SNB-78 CNS is more than 100 µM; in the test with HOP-18 NSCLC, more than 100 µM; in the test on DMS 114 small cell lung, more than 22.3 µM; with DLD-1 colon it was more than 100 µM; in the test with OVCAR-4 ovarian, more than 85.4 µM; with DMS 273 small cell lung, more than 100 µM. In addition, the TGI in the test with M19-MEL melanoma is more than 100 µM; with XF 498 CNS, more than 87.6 µM.
For `CC(=O)NNc1nc(C)c(C(=O)NNC(=O)C(=O)Nc2ccc(Cl)c([N+](=O)[O-])c2)s1`, the TGI in the test on SNB-78 CNS, in the test with DMS 114 small cell lung, in the test with OVCAR-4 ovarian, in the test with M19-MEL melanoma and in the test on XF 498 CNS was more than 100 µM in each case.
Turning to `C/C(NNC(=O)c1ccccc1O)=C1\C=Nc2ccccc2S1`, the TGI with SNB-78 CNS was more than 100 µM; in the test with HOP-18 NSCLC, 49.6 µM; in the test with DLD-1 colon, more than 100 µM; in the test on OVCAR-4 ovarian it was more than 100 µM; in the test on DMS 273 small cell lung it was more than 100 µM; in the test on M19-MEL melanoma, more than 100 µM. This molecule also gave a TGI with XF 498 CNS of more than 100 µM.
Regarding `O=C1c2c(O)cccc2C(C(=O)CCCCCC(=O)C2c3cccc(O)c3C(=O)c3c(O)cccc32)c2cccc(O)c21`, the GI50 is 7.55 µM in the test on SNB-78 CNS; 7.95 µM in the test on HOP-18 NSCLC; 3.16 µM in the test with DMS 114 small cell lung; 7.67 µM in the test on DLD-1 colon; 5.17 µM with OVCAR-4 ovarian; 2.4 µM in the test with M19-MEL melanoma. Also, the TGI is 4.28 µM and 14.9 µM in the test on HOP-18 NSCLC; 1.29 µM and 9.22 µM in the test with DMS 114 small cell lung; 8.88 µM and 16.7 µM in the test on DLD-1 colon; 4.61 µM and 11 µM in the test with OVCAR-4 ovarian; 13.3 µM in the test on DMS 273 small cell lung; 2.5 µM and 9.2 µM in the test with M19-MEL melanoma. For the same molecule, in the test with XF 498 CNS, the TGI amounted to 1.2 µM.
Take `NCCOc1ccc(/C(=C(/Cl)c2ccccc2)c2ccccc2)cc1`: the TGI in the test with SNB-78 CNS worked out at 25 µM; in the test with DMS 114 small cell lung it was 27.1 µM; in the test with DLD-1 colon, 33.3 µM; with OVCAR-4 ovarian it was 28.7 µM; with DMS 273 small cell lung, 25.5 µM; with M19-MEL melanoma, 23.8 µM. This molecule came in with a TGI in the test on XF 498 CNS of 17.6 µM.
Take `C[C@H]1CCC/C=C/C2CC(OC(=O)CN(C)C)CC2C(OC(=O)CN(C)C)/C=C/C(=O)O1` (stereo partly specified): the GI50 in the test on SNB-78 CNS was 0.227 µM; in the test on HS 578T breast, 30.1 µM; in the test on DMS 114 small cell lung, 0.479 µM; in the test on DLD-1 colon, 0.443 µM; in the test with OVCAR-4 ovarian, 0.349 µM; with DMS 273 small cell lung it was 3.77 µM. For the same molecule, the GI50 in the test on MDA-MB-435 was 0.408 µM; with M19-MEL melanoma it was 0.0406 µM; in the test with XF 498 CNS, 0.179 µM. Also, the TGI in the test with SNB-78 CNS was more than 100 µM; in the test with HS 578T breast it was more than 100 µM; with DMS 114 small cell lung it was more than 30.2 µM; with DLD-1 colon, more than 37.1 µM; in the test with OVCAR-4 ovarian, 34.2 µM; with DMS 273 small cell lung it was 27.7 µM. Further, the TGI is more than 100 µM in the test on MDA-MB-435, 0.211 µM in the test with M19-MEL melanoma and 1.42 µM in the test with XF 498 CNS.
Consider `CC(Oc1cc2oc(=O)cc(-c3ccccc3)c2cc1Cl)C(=O)O` (stereo unspecified), for which the TGI with SNB-78 CNS, in the test on HOP-18 NSCLC, with DMS 114 small cell lung, with DLD-1 colon, in the test on OVCAR-4 ovarian and in the test on M19-MEL melanoma was more than 100 µM in each case. In the test with XF 498 CNS, this molecule gave a TGI of more than 100 µM.
`O=C(CCc1nc(=S)[nH][nH]1)Nc1cc(Cl)ccc1Cl`: the TGI in the test on HOP-18 NSCLC, with DMS 114 small cell lung, with DLD-1 colon, in the test on OVCAR-4 ovarian, in the test on DMS 273 small cell lung and in the test on M19-MEL melanoma was more than 100 µM each time.
Take `C#CCN(N=O)C(=O)NC(CCCCNC(=O)OCc1ccccc1)C(=O)OCc1ccccc1` (stereo unspecified): the TGI is more than 100 µM in the test on SNB-78 CNS; 44.9 µM with HOP-18 NSCLC; 44 µM in the test on DMS 114 small cell lung; 42.7 µM in the test on DLD-1 colon; 72.8 µM with OVCAR-4 ovarian; more than 100 µM in the test with DMS 273 small cell lung. Besides, the TGI in the test with M19-MEL melanoma was more than 100 µM.
In the case of `COC(=O)C(C(=O)C(=O)Nc1ccc(C)cc1)c1nc2ccc([N+](=O)[O-])cc2[nH]c1=O` (stereo unspecified), the TGI with SNB-78 CNS, with HOP-18 NSCLC, in the test with DMS 114 small cell lung, with DLD-1 colon, with OVCAR-4 ovarian and in the test with DMS 273 small cell lung was more than 100 µM each time. The TGI in the test with M19-MEL melanoma and with XF 498 CNS was more than 100 µM throughout.
Take `O=C1OC(CC(=O)c2ccc(F)cc2)C(Cl)=C1Cl` (stereo unspecified): the TGI is more than 100 µM in the test with SNB-78 CNS; 44.6 µM in the test on HOP-18 NSCLC; more than 100 µM in the test on DMS 114 small cell lung; 47.4 µM in the test on DLD-1 colon; 43.5 µM with OVCAR-4 ovarian; more than 100 µM in the test on M19-MEL melanoma. The TGI in the test with XF 498 CNS is 46.8 µM.
Turning to `NC(Cc1ccccc1)C(=O)OCN1C(=O)C2C3C=CC(C2C1=O)C1C2C(=O)N(COC(=O)C(N)Cc4ccccc4)C(=O)C2C31` (stereo unspecified), the GI50 is 45.3 µM and 20 µM with HOP-18 NSCLC; 21.6 µM in the test with M19-MEL melanoma. In addition, the TGI in the test with HOP-18 NSCLC is > 100 µM and 52.1 µM; in the test on DMS 114 small cell lung it was 40.4 µM and 33.8 µM; in the test with DLD-1 colon it was 51.4 µM and 60.6 µM; in the test with OVCAR-4 ovarian it was 34 µM and 44.5 µM; with M19-MEL melanoma it was 38.4 µM; with XF 498 CNS, 71.7 µM.
For the molecule `NC1=NN(c2ccccc2)C(=O)C1C(=O)C(=O)Nc1ccc(Cl)cc1` (stereo unspecified), the TGI in the test with SNB-78 CNS, in the test with HOP-18 NSCLC, in the test on DMS 114 small cell lung, with DLD-1 colon, with OVCAR-4 ovarian and with DMS 273 small cell lung was more than 100 µM in each case. The TGI in the test with M19-MEL melanoma is more than 100 µM.
As for `O/N=C1/CCC/C1=C\c1ccccc1`, the TGI in the test with SNB-78 CNS, with HOP-18 NSCLC, in the test on DLD-1 colon, in the test with OVCAR-4 ovarian, in the test on DMS 273 small cell lung and in the test with XF 498 CNS was more than 100 µM each time.

The values above are taken from PubChem BioAssay (NCI).
